From patent publication US11077214B2, “Multimodal CT/optical agents” (University Health Network, priority 2013, dated 2021)

Test: In vitro photostability of ICG fluorescence at room temperature
Type: physicochemical
Details: 3 days at room temperature
Protocol: The size of the liposome samples was measured using dynamic light scattering (DLS) (90Plus, Brookhaven, Holtsville, N.Y.). The iodine and ICG concentrations were determined using an absorbance assay at a wavelength of 245 nm for iodine and 785 nm for ICG (Cary 50 UV/VIS Spectrophotometer, Varian Inc., Palo Alto, Calif.). The lipid components of the liposome sample was analyzed using ultra performance liquid chromatography (UPLC, ACQUITY, Waters, Milford, Mass.) equipped with an evaporative light scattering detector (ELSD). The in vitro fluorescence measurements were performed using a 2D fluorescence imager (excitation/emission: 735/820 nm, CRI Maestro, Perkin Elmer, Waltham, Mass.).
Free ICG diluted in water, a 1:10 ethanol/water mixture and a 0.5:10 iohexol/water mixture yielded only 8±2%, 3±1%, 7±2% of its original fluorescence, respectively. […] The photostability of the encapsulated ICG was investigated by incubating the liposome samples and the free ICG solutions (at 7 physiologically relevant concentrations ranging from 0.5 to 2.5 μg/mL) at room temperature over a 21-day period.

- retained original fluorescence signal (diluted in 0.5:10 iohexol/water mixture): 7±2%
- retained original fluorescence signal (diluted in 1:10 ethanol/water mixture): 3±1%
- retained original fluorescence signal (diluted in water): 8±2%
SMILES: CC1(C)C(/C=C/C=C/C=C/C=C2\N(CCCCS(=O)(=O)O)c3ccc4ccccc4c3C2(C)C)=[N+](CCCCS(=O)(=O)[O-])c2ccc3ccccc3c21 [Free ICG, indocyanine green]
